# Assays:
# [1] = One-electron reduction potential E(1) by pulse radiolysis; assay type: physicochemical; conditions: determined by pulse radiolysis
# [2] = tested on: SKOV3: human ovarian carcinoma cell line; test: Proliferation IC50 assay, oxic/hypoxic, SKOV3; assay type: cell-based; conditions: for IC50: 4 h exposure under aerobic conditions; for HCR (hypoxic cytotoxicity ratio) SKOV3: IC50(aerobic)/IC10(hypoxic); for HCR SKOV3: IC50(aerobic)/IC50(hypoxic)
# [3] = tested on: HT29: human colon cancer cell line; test: Proliferation IC50 assay, oxic/hypoxic, HT29; assay type: cell-based; conditions: for IC50: 4 h exposure under aerobic conditions; for HCR (hypoxic cytotoxicity ratio) HT29: IC50(aerobic)/IC10(hypoxic); for HCR HT29: IC50(aerobic)/IC50(hypoxic)
SMILES,E(1): one-electron reduction potential [1] [mV],"IC50 ([2]; Homo sapiens, SK-OV-3, Table 3) [nM]",HCR (hypoxic cytotoxicity ratio) SKOV3 ([2]; Table 3),"IC50 ([3]; Homo sapiens, HT-29, Table 3) [nM]",HCR (hypoxic cytotoxicity ratio) HT29 ([3]; Table 3),melting point,"IC50 ([2]; Homo sapiens, SK-OV-3, Table 4) [nM]",HCR SKOV3 ([2]; Table 4),"IC50 ([3]; Homo sapiens, HT-29, Table 4) [nM]",HCR HT29 ([3]; Table 4),IC50 ([2]; Table 3) [nM],IC50 ([3]; Table 3) [nM]
"CN(C)CCOc1ccc2[nH]c(C(=O)N3CC(CCl)c4c3cc([N+](=O)[O-])c3cccc([N+](=O)[O-])c43)cc2c1 (centres unmarked) [Compound 52, 1-(Chloromethyl)-3-{5-[2-(dimethylamino)ethoxy]indol-2-carbonyl}-5,9-dinitro-1,2-dihydro-3H-benzo[e]indole]",−477 ± 7,1200,1.5,1400,1.3,–,–,–,–,–,–,–
"CN(C)CCOc1ccc2[nH]c(C(=O)N3CC(CCl)c4c3cc([N+](=O)[O-])c3ccc(S(C)(=O)=O)cc43)cc2c1 (centres unmarked) [Compound 47, 1-(Chloromethyl)-3-{5-[2-(dimethylamino)ethoxy]indol-2-carbonyl}-8-(methylsulfonyl)-5-nitro-1,2-dihydro-3H-benzo[e]indole]",−420 ± 8,1900,2.7,980,1.2,–,–,–,–,–,–,–
"COC(=O)c1ccc2c3c(cc([N+](=O)[O-])c2c1)N(C(=O)c1cc2cc(OCCN(C)C)ccc2[nH]1)CC3CCl (centres unmarked) [Compound 14, Methyl 1-(chloromethyl)-3-{5-[2-(dimethylamino)ethoxy]indol-2-carbonyl}-5-nitro-1,2-dihydro-3H-benzo[e]indole-7-carboxylate]",−429 ± 8,440,1.9,320,1.2,–,–,–,–,–,–,–
"COc1cc2cc(C(=O)N3CC(CCl)c4c3cc([N+](=O)[O-])c3cc(C(=O)NCCN(C)C)ccc43)[nH]c2c(OC)c1OC (centres unmarked) [Compound 20, 1-(Chloromethyl)-N-[2-(dimethylamino)ethyl]-5-nitro-3-(5,6,7-trimethoxyindol-2-carbonyl)-1,2-dihydro-3H-benzo[e]indole-7-carboxamide]",−427 ± 12,2000,24,1500,5.9,–,–,–,–,–,–,–
"CN(C)CCOc1ccc2[nH]c(C(=O)N3CC(CCl)c4c3cc([N+](=O)[O-])c3c([N+](=O)[O-])cccc43)cc2c1 (centres unmarked) [Compound 2, 1-(Chloromethyl)-3-(5-[2-(dimethylamino)ethoxy]indol-2-carbonyl)-5,6-dinitro-1,2-dihydro-3H-benzo[e]indole]",−467 ± 8,4100,2.9,2800,2.2,–,–,–,–,–,–,–
"COc1cc2cc(C(=O)N3CC(CCl)c4c3cc([N+](=O)[O-])c3cc(C(N)=O)ccc43)[nH]c2c(OC)c1OC (centres unmarked) [Compound 15, 1-(Chloromethyl)-5-nitro-3-[5,6,7-trimethoxyindol-2-carbonyl]-1,2-dihydro-3H-benzo[e]indole-7-carboxamide]",–,5800,6.1,7900,2.8,287 to 289 °C,–,–,–,–,–,–
"CN(C)CCOc1ccc2[nH]c(C(=O)N3CC(CCl)c4c3cc(N)c3cc(C(N)=O)ccc43)cc2c1 (centres unmarked) [Compound 55, 5-Amino-1-(chloromethyl)-3-{5-[2-(dimethylamino)ethoxy]indol-2-carbonyl}-1,2-dihydro-3H-benzo[e]indole-7-carboxamide]",–,–,–,–,–,232 to 236 °C (dec.),13,1.0,61,1.4,–,–
"COc1cc2cc(C(=O)N3CC(CCl)c4c3cc([N+](=O)[O-])c3c([N+](=O)[O-])cccc43)[nH]c2c(OC)c1OC (centres unmarked) [Compound 1, 1-(Chloromethyl)-5,6-dinitro-3-(5,6,7-trimethoxyindol-2-carbonyl)-1,2-dihydro-3H-benzo[e]indole]",–,> 20000,–,18000,<1,278 to 279 °C,–,–,–,–,–,–
"COC(=O)c1ccc2c3c(cc(N)c2c1)N(C(=O)c1cc2cc(OCCN(C)C)ccc2[nH]1)CC3CCl (centres unmarked) [Compound 54, Methyl 5-amino-1-(chloromethyl)-3-{5-[2-(dimethylamino)ethoxy]indol-2-carbonyl}-1,2-dihydro-3H-benzo[e]indole-7-carboxylate]",–,–,–,–,–,225 to 230 °C,7.7,0.91,8.6,1.7,–,–
"CN(C)CCOc1ccc2[nH]c(C(=O)N3CC(S(=O)(=O)NCCO)c4c3cc(N)c3c(CCl)cccc43)cc2c1 (centres unmarked) [Compound 62, 5-Amino-6-(chloromethyl)-3-{5-[2-(dimethylamino)ethoxy]indol-2-carbonyl}-N-(2-hydroxyethyl)-1,2-dihydro-3H-benzo[e]indole-1-sulfonamide]",–,–,–,–,–,225 to 230 °C,34,1.1,94,1.0,–,–
"COc1cc2cc(C(=O)N3CC(CCl)c4c3cc([N+](=O)[O-])c3ccc(S(C)(=O)=O)cc43)[nH]c2c(OC)c1OC (centres unmarked) [Compound 46, 1-(Chloromethyl)-8-(methylsulfonyl)-5-nitro-3-(5,6,7-trimethoxyindol-2-carbonyl)-1,2-dihydro-3H-benzo[e]indole]",–,11000,4.2,14000,2.5,265 °C,–,–,–,–,–,–
CN(C)CCOc1ccc2[nH]c(C(=O)N3CC(CCl)c4c3cc([N+](=O)[O-])c3ccc(C#N)cc43)cc2c1 (centres unmarked) [Compound 45],−419 ± 8,–,1.5,–,1.4,–,–,–,–,–,1200,1400
"COC(=O)c1ccc2c3c(cc([N+](=O)[O-])c2c1)N(C(=O)c1cc2cc(OC)c(OC)c(OC)c2[nH]1)CC3CCl (centres unmarked) [Compound 13, Methyl 1-(chloromethyl)-3-(5,6,7-trimethoxyindol-2-carbonyl)-5-nitro-1,2-dihydro-3H-benzo[e]indole-7-carboxylate]",–,1100,4.0,1900,3.2,256 to 257 °C,–,–,–,–,–,–
"CN(C)CCOc1ccc2[nH]c(C(=O)N3CC(CCl)c4c3cc(N)c3cc(C#N)ccc43)cc2c1 (centres unmarked) [Compound 56, 5-Amino-1-(chloromethyl)-3-{5-[2-(dimethylamino)ethoxy]indol-2-carbonyl}-1,2-dihydro-3H-benzo[e]indole-7-carbonitrile]",–,–,–,–,–,250 to 255 °C (dec.),13,1.1,17,2.0,–,–
"CN(C)CCOc1ccc2[nH]c(C(=O)N3CC(CCl)c4c3cc(N)c3cc(S(C)(=O)=O)ccc43)cc2c1 (centres unmarked) [Compound 58, 5-Amino-1-(chloromethyl)-3-{5-[2-(dimethylamino)ethoxy]indol-2-carbonyl}-7-(methylsulfonyl)-1,2-dihydro-3H-benzo[e]indole]",–,–,–,–,–,280 to 285 °C,14,1.7,11,1.6,–,–
"CC(=O)c1ccc2c([N+](=O)[O-])cc3c(c2c1)C(CCl)CN3C(=O)c1cc2cc(OCCN(C)C)ccc2[nH]1 (centres unmarked) [Compound 41, 8-Acetyl-1-(chloromethyl)-3-{5-[2-(dimethylamino)ethoxy]indol-2-carbonyl}-5-nitro-1,2-dihydro-3H-benzo[e]indole]",–,200,1.3,150,1.1,210 to 215 °C,–,–,–,–,–,–
"CNS(=O)(=O)c1ccc2c3c(cc(N)c2c1)N(C(=O)c1cc2cc(OCCN(C)C)ccc2[nH]1)CC3CCl (centres unmarked) [Compound 61, 5-Amino-1-(chloromethyl)-3-{5-[2-(dimethylamino)ethoxy]indol-2-carbonyl}-N-methyl-1,2-dihydro-3H-benzo[e]indole-7-sulfonamide]",–,–,–,–,–,260 to 265 °C (dec.),20,1.8,24,1.2,–,–
"COc1cc2cc(C(=O)N3CC(CCl)c4c3cc([N+](=O)[O-])c3ccc(S(N)(=O)=O)cc43)[nH]c2c(OC)c1OC (centres unmarked) [Compound 48, 1-(Chloromethyl)-5-nitro-3-(5,6,7-trimethoxyindol-2-carbonyl)-1,2-dihydro-3H-benzo[e]indole-8-sulfonamide]",–,12000,2.6,24000,1.9,264 to 266 °C (dec.),–,–,–,–,–,–
